Measured values taken from patent US20110288142A1, “CRYSTALLINE N--5-chloro-4-(4-chloro-1-methyl-1H-pyrazol-5-yl)-2-thiophenecarboxamide hydrochloride” (priority 2009, published 2011).

Tests used:
[1] = Chemical stability of solid form; type: physicochemical; conditions: compared with free acid and other salt forms, including the amorphous hydrochloride form
[2] = Hygroscopicity, moisture sorption on VTI instrument SGA 100; conditions: for level of hygroscopicity / weight increase of the compound (moisture): 25 °C; for hygroscopicity of the solid form (general statement): hydrochloride
Excerpt: There were 24 Relative Humidity steps used. The Relative Humidity at each step is as follows.

[3] = Solubility in bio-relevant media; type: physicochemical

Row | chemical stability [1] | level of hygroscopicity ([2]; crystalline form, no drying, 24 relative humidity steps) | weight increase of the compound (moisture) ([2]; crystalline form, no drying, 24 relative humidity steps, 5 to 90) | hygroscopicity of the solid form (general statement) [2] | solubility in bio-relevant media [3] | level of hygroscopicity ([2]; amorphous form, dried at 60 °C, 19 relative humidity steps) | weight increase of the compound (moisture) ([2]; amorphous form, dried at 60 °C, 19 relative humidity steps, 0 to 90) | Compound
1 | improved chemical stability | low level of hygroscopicity | less than 1 % w/w | non-hygroscopic | good solubility |  |  | Cl.Cn1ncc(Cl)c1-c1cc(C(=O)N[C@H](CN)Cc2cccc(F)c2)sc1Cl [Compound A]
2 |  |  |  | hygroscopic |  | high level of hygroscopicity | more than 18 % w/w | Cl.Cn1ncc(Cl)c1-c1cc(C(=O)N[C@H](CN)Cc2cccc(F)c2)sc1Cl [Example 3]
